Experimental data reported in patent US5220059A, “Lipoxygenase-inhibiting compounds derived from non-steroidal antiinflammatory carboxylic acids” (Abbott Laboratories, priority 1990, dated 1993).

What was measured:
5-lipoxygenase = target: T1, 5-lipoxygenase (Rattus norvegicus, UniProt P12527); test: In vitro inhibition of 5-lipoxygenase (20,000xg supernatant from homogenized RBL-1 cells); type: biochemical; conditions: read-out: IC50 (concentrations producing 50% enzyme inhibition)
T1 construct: 20,000xg supernatant from homogenized RBL-1 cells; endogenous in cells; host or cells: RBL-1 cells (20,000xg supernatant of homogenate)
T1 sequence (P12527 1-673): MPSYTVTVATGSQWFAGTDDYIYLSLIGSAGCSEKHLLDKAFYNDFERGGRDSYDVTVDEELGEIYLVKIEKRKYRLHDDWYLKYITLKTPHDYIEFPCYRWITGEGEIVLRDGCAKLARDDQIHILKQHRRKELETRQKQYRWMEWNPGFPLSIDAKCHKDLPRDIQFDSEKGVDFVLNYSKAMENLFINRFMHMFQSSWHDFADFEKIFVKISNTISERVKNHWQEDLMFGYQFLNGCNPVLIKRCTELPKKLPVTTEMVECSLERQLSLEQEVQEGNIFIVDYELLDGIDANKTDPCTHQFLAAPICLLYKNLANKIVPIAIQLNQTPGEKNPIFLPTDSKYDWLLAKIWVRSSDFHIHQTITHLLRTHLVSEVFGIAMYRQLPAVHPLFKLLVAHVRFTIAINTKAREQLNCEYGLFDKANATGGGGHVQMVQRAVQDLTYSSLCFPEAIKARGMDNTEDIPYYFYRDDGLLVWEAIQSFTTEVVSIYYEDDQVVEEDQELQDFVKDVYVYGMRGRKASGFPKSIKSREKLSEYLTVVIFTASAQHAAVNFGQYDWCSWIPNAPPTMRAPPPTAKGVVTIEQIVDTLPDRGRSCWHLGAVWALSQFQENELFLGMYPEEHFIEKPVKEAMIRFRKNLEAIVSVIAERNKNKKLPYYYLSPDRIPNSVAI
Experimental: The In vitro effect of the compounds of the present invention on 5-lipoxygenase activity was evaluated using the 20,000xg supernatant from homogenized RBL-1 cells in a manner similar to that described by Dyer and coworkers in Fed. Proc., Fed. Am. Soc. Exp. Biol. 43:[…] (1984). IC50 values (i.e., concentrations of the compounds producing 50% enzyme inhibition) were calculated by linear regression analysis of percentage inhibition versus log inhibitor concentration plots.

leukotriene biosynthesis = test: In vivo inhibition of leukotriene biosynthesis, rat peritoneal anaphylaxis model; conditions: 200 μmol/kg PO (gavage) one hour prior to antigen challenge, peritoneal fluids collected 15 minutes after challenge
Experimental: The in vivo inhibition of leukotriene biosynthesis by the compounds of the present invention was evaluated in the following manner. The effect of the compounds after oral administration was determined using a rat peritoneal anaphylaxis model in a manner similar to that described by Young and coworkers in Fed. Proc., Fed. Am. Soc. Exp. Biol. 44:1185 (1985). According to this model rats were injected intraperitoneally (IP) with rabbit antibody to bovine serum albumin (BSA) and three hours later injected IP with BSA to induce an antigen-antibody response. Rats were sacrificed 15 minutes after this challenge and the peritoneal fluids were collected and analyzed for leukotriene levels. Test compounds were administered by gavage (PO) one hour prior to the antigen challenge. Percent inhibition values were determined by comparing the treatment group to the mean of the control group.

SMILES | IC50 (5-lipoxygenase) [nM] | In vivo Inhibition of Leukotriene Biosynthesis (leukotriene biosynthesis) [%]
CC(C)Cc1ccc(C(C)N(O)C(N)=S)cc1 (stereo not drawn) [Example 29, N-hydroxy-N-[1-(4-(2'-methylpropyl)phenyl)ethyl] thiourea] | < 400 | 
CC(C)Cc1ccc(C(C)CN(O)C(N)=O)cc1 (stereo not drawn) [Example 17, N-hydroxy-N-[2-(4-(2-methylpropyl)phenyl)propyl] urea] | 200 | 
COc1ccc2cc(C(C)N(O)C(N)=O)ccc2c1 (stereo not drawn) [Example 2, N-hydroxy-N-1-(6-methoxynaphthalen-2-yl)ethyl urea] | 430 | 66
CNC(=O)N(O)C(C)c1ccc(CC(C)C)cc1 (stereo not drawn) [Example 3, N'-methyl-N-hydroxy-N-1-(4-(2'-methylpropyl)phenyl)ethyl urea] | 700 | 39
COc1ccc2c(c1)c(CCN(O)C(N)=O)c(C)n2C(=O)c1ccc(Cl)cc1 [Example 16, N-hydroxy-N-[2-(N-(4-chlorobenzoyl)-5-methoxy-2-methyl-[1H]-indol-3-yl)ethyl] urea] | 400 | 
CNC(=O)N(O)CCc1c(C)n(C(=O)c2ccc(Cl)cc2)c2ccc(OC)cc12 [Example 32, N-hydroxy-N-[2-(N-(4-chlorobenzoyl)-5-methoxy-2-methyl-[1H]-indol-3-yl)ethyl]-N'-methyl urea] | 200 | 42
CCSC(=O)N(O)C(C)c1ccc(CC(C)C)cc1 (stereo not drawn) [Example 31, N-hydroxy-N-[1-(4-(2'-methylpropyl)phenyl)ethyl] thioethylcarbamate] | 200 | 
COc1ccc2cc(C(C)N(O)C(C)=O)ccc2c1 (stereo not drawn) [Example 5, N-hydroxy-N-1-(6-methoxynaphthalen-2-yl)ethyl acetamide] | 700 | 62
CC(C)Cc1ccc(C(C)N(O)C(N)=O)cc1 (stereo not drawn) [Example 1, N-hydroxy-N-[1-(4-(2'-methylpropyl)phenyl)ethyl]urea] | 640 | 
CNC(=O)N(O)C(C)c1ccc2cc(OC)ccc2c1 (stereo not drawn) [Example 4, N'-methyl-N-hydroxy-N-1-(6-methoxynaphthalen-2-yl)ethyl urea] | 600 | 
CCOC(=O)N(O)C(C)c1ccc(CC(C)C)cc1 (stereo not drawn) [Example 30, N-hydroxy-N-[1-(4-(2'-methylpropyl)phenyl)ethyl] ethoxycarbamate] | < 400 | 
